Experimental findings from patent US9828351B2, “Enzyme interacting agents” (MONASH UNIVERSITY, priority 2014, dated 2017) are described below.

Holding throughout (type): cell-based
One experiment relates to MCF7 breast cancer cells. Nature of the experiment: Anticancer activity in MCF7 cell lines, MTS assay. As to conditions: Homo sapiens, concentration required to inhibit cell proliferation by 50%, 72 hrs, read-out: MCF-7 IC50. Here is the method: Measurement of Anticancer Activity in MCF7 Cell Lines
MCF7 breast cancer cells were treated with the test compounds and incubated at 37° C., 5% CO2 in air for 72 hrs. The MTS assay was conducted with addition of prepared MTS solution followed by 2 hr incubation, an OD reading and the raw data recorded. The data was managed in tabular form, values adjusted for vehicle control, and the adjusted values graphed as a sigmoidal curve and the EC50 value calculated.

The subject of experiment [1] is PC3 prostate cancer cell lines. The experiment is described as follows: Anticancer activity in PC3 cell line, CellTitre AQueous One cell viability assay. To be noted: Homo sapiens, PC-3; concentration required to inhibit cell proliferation by 50%; 72 hours. Here is the method: Measurement of Anticancer Activity in PC3 Cell Line Assays
PC3 prostate cancer cell lines were cultured in DMEM (containing 10% fetal calf serum and penicillin-streptomycin).
Before treatment with drug compounds, cells were plated at 2,500 cells/well in 96 well plates and incubated at 37° C. with 5% CO2 in a humidified incubator for 24 hours prior. Cells were only plated in columns 3-10 and rows C—F to ensure uniform humidity and warmth across all wells. The remaining wells were filled with 100 μL of phosphate buffered saline.
Drug stock solutions (50 or 10 mM) were diluted×1000 in media to a final concentration of either 50 μM or 10 μM with a DMSO vehicle concentration of 0.1%.
Cell culture supernatants were aspirated and replaced with drug containing media. Drug treatments were performed in duplicate wells, while potential plate layout-specific variation in cell growth was accounted for by addition of a vehicle control (0.1% DMSO).
Cells were then incubated with drug compounds at 37° C. with 5% CO2 in a humidified incubator for 72 hours prior to assay.
Media was diluted with CellTitre AQueous One Solution (Promega, Australia; Cat # G3580) according to manufacturer's instructions to produce a final concentration of 317 μg/mL.
Cell culture supernatants were then aspirated from wells and replaced with 100 μL of CellTitre solution. Triplicate cell-free control wells containing only CellTitre solution were also included in each assay.
Cells were then incubated at 37° C. with 5% CO2 in a humidified incubator for 1 hour at which time absorbance was read at 490 nm with an EnVision microplate reader (Perkin Elmer, Australia).
When analysing data, background absorbance (taken from cell-free control wells) was subtracted from each reading. […] For each drug concentration the mean (±SEM) is calculated and graphed using GraphPad Prism (version 5). A sigmoidal curved is fitted to the data and used to calculate the IC50 of each compound.

The target of experiment [2] is T1, SphK1a in Flpln-SphK1a cells (Flp-In T-Rex HEK293) (Homo sapiens, UniProt Q9NYA1).
T1 construct: expressed in transfected cells; host or cells: Flp-In T-Rex HEK293 cells, doxycycline-induced
Nature of the experiment: SphK1 proteasomal degradation study (immunoblotting). As to conditions: 10 μM test compound, 24 h. Here is the method:
These studies were performed as previously described for the drug SKI-II (C. Loveridge et al. J. Biol. Chem. 2010, 285, 38891). […] After 24 h cells were treated with 10 μm test compound, 10 μm MG132, or both. DMSO was used as the vehicle control. After a further 24 h, cells were harvested, lysed, and subjected to SDS-PAGE and immunoblotting with anti-FLAG (Sigma), anti-ERK1/2 (Promega), or anti-a-tubulin (Abcam) antibodies.
(Immunoblotting shows a protein as a band on a membrane.)

T1 sequence (Q9NYA1 whole entry): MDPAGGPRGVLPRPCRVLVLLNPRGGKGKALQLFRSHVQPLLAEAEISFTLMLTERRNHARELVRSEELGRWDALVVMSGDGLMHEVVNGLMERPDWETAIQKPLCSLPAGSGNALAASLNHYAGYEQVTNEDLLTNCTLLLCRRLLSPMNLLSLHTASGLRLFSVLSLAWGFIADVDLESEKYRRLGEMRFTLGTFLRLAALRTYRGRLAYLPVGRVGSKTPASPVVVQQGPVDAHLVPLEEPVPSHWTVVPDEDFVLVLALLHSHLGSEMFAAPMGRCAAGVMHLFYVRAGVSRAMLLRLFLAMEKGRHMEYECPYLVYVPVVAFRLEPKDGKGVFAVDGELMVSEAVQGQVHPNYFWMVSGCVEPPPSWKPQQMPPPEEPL

For orientation: IC50 means the concentration at which inhibition is half-maximal. For `Oc1ccc(Nc2nc(-c3ccc(Cl)cc3)cs2)cc1` [SKI-II, reference compound], the IC50 in the experiment with MCF7 breast cancer cells lay in the range of 10 to 100 µM; in experiment [1] it was 1 to 10 µM. The “% SphK1a degradation at 10 μM” value in experiment [2] is given as 100%.
